Measurements: a melting point compilation (Tetko et al.)

SMILES | melting point [°C]
COc1ncccc1NC(=O)OCC(F)(F)F | 44 to 46
O=C(O)CNS(=O)(=O)c1ccc(N2CCCC2=O)cc1 | 130 to 132
Cc1cc2occ(CC(=O)O)c2cc1C(C)C | 141 to 143
COc1cc(C)nc(NN)n1 | 116 to 118
O=C(O)C(Oc1cc(Cl)ccc1Cl)c1ccccc1 (stereo not given) | 144 to 146
CCOc1ccc(C(=O)C(C)Cl)cc1 (stereo not given) | 62 to 64
Cc1cc(C(=O)CCl)c(C)n1Cc1ccc(F)cc1 | 94 to 96
COc1ccccc1-c1nnc(S)o1 | 243 to 245
Nc1ccc(S(=O)(=O)N2CCCC(C(=O)O)C2)cc1 (stereo not given) | 195 to 197
CCC(C)Oc1ccccc1C=CC(=O)O (stereo not given) | 83 to 85
C#CCN1C(=O)COc2ccc(Br)cc21 | 111 to 113
CC(C)(C)NCCS(C)(=O)=O | 39 to 41
CC(O)(C(=O)O)C1CC1 (stereo not given) | 39 to 41
CC(C)(C)c1ccc(C=C[N+](=O)[O-])cc1 | 44 to 46
O=C(O)CCNC(=O)N1CCc2ccccc2C1 | 144 to 146
CN(CC(=O)O)C(=O)c1ccc(Br)s1 | 114 to 116
O=C(O)C=Cc1ccc2ccccc2n1 | 169 to 171
O=C(O)CCCNS(=O)(=O)c1ccc2c(c1)CCCC2 | 130 to 132
O=[N+]([O-])c1cc(S(=O)(=O)N2CCCCC2)ccc1Cl | 61 to 63
NNC(=O)c1sc2cc(F)ccc2c1Cl | 239 to 241
O=[N+]([O-])c1cccc(F)c1S(=O)(=O)Cl | 89 to 91
O=C(O)CCN1C(=O)COc2ccccc21 | 168 to 170
O=C(O)c1ccc(-c2ccccc2)o1 | 153 to 155
CS(=O)(=O)c1nc2ccccc2[nH]1 | 188 to 192

SMILES | melting point [°C]
Nc1ccc(N2CCCCC2)c(S(=O)(=O)Nc2ccc(Cl)cc2)c1 | 145 to 147
CC(C)CCOc1ccc(C(=O)NN)cc1 | 108 to 110
CC(C)c1cc(C(C)C)c([N+](=O)[O-])cc1[N+](=O)[O-] | 77 to 79
CCOc1cc(F)ccc1[N+](=O)[O-] | 31 to 33
NC(=O)Cc1ccccc1Cl | 178 to 180
CC(C(=O)O)N1C(=O)C2C3CCC(O3)C2C1=O (stereo not given) | 189 to 191
Cc1[nH]c(=O)[nH]c(=O)c1CCC(=O)O | 306 to 308
O=C(O)c1c[nH]c2cc(Cl)ccc12 | 219 to 221
CN(C=O)c1ccc(C(=O)CCl)cc1 | 96 to 98
O=C(O)c1cc(-c2cccnc2)on1 | 179 to 181
COc1ccc(Cn2ncc(C)c2N)cc1OC | 98 to 100
Fc1cccc(CBr)c1Cl | 39 to 41
Cc1ccc(C(=O)O)cc1NC(=O)Cc1ccncc1 | 294 to 296
Oc1ccc(-c2ccc(F)cc2)nn1 | 269 to 271
Nc1ccc(Sc2ccc(C(F)(F)F)cc2)cc1 | 93 to 95
Cc1cccc(NC(=O)C2CCNCC2)n1 | 175 to 177
Cc1oc2c(F)c(F)c(F)c(F)c2c1C(=O)O | 206 to 208
Cn1ncc2c(=O)[nH]c(NN)nc21 | 285 to 287
CCN(CC)S(=O)(=O)c1ccc(Br)c(C(=O)O)c1 | 141 to 145
N#Cc1cc(Br)c2cc[nH]c2c1 | 139 to 141
NNc1ccc([N+](=O)[O-])cc1S(=O)(=O)Nc1ccccc1Cl | 220 to 229
CC1CCCN1CC(=O)O (stereo not given) | 167 to 169
CCC(=O)N1CSCC1C(=O)O (stereo not given) | 74 to 76
C=CC(=O)Nc1cccc(C(F)(F)F)c1 | 79 to 81

SMILES | melting point [°C]
CCOC(C)C(N)=NO (stereo not given) | 88 to 90
O=c1ccc(-c2ccccc2)n[nH]1 | 201 to 204
Cc1nc(Cl)c(Cl)nc1C | 77 to 79
COC(=O)c1n[nH]c(N)n1 | 218 to 222
Clc1cn2ccccc2n1 | 72 to 74
COc1ccc(-c2ccc(C#N)cc2)cc1 | 102 to 104
O=Cc1ccccc1OCC(=O)N1CCCC1 | 112 to 114
COC(=O)c1cc(CCl)c(C)s1 | 54 to 56
OCc1ccc(CCl)cc1 | 55 to 57
N#CCCn1cc(C(=O)O)c(-c2cccc([N+](=O)[O-])c2)n1 | 242 to 244
Cc1ccc(-c2nnn(CC(=O)O)n2)cc1 | 188 to 190
O=C(NC1CCCC1)c1cnc(Cl)c(Cl)c1 | 159 to 161
CCc1c(O)nc(S)n(-c2ccccc2OC)c1=O | 160 to 162
Cn1ccc(C(=O)NC2(C(=O)O)CCCCCC2)cc1=O | 242 to 244
O=C1NC2(CCNCC2)NC12CCCCC2 | 276 to 278
Cc1ccc(NC2C=CS(=O)(=O)C2)cc1C (stereo not given) | 177 to 179
CNc1ccc(F)cc1[N+](=O)[O-] | 71 to 73
COCC(C)(O)C(=O)O (stereo not given) | 53 to 55
CC(Cc1ccc(Cl)cc1Cl)C(=O)O (stereo not given) | 49 to 51
Clc1c(Br)ccc2ccccc12 | 51 to 53
Nc1cc(F)ccc1N1C(=O)C2CCCCC2C1=O (stereo not given) | 174 to 176
CC1(c2ccc3c(c2)OCO3)NC(=O)NC1=O (stereo not given) | 197 to 199
O=C(O)/C=C/c1csc2ccccc12 | 225 to 227
CN(C)c1ncnc2nc[nH]c12 | 256 to 258

SMILES | melting point [°C]
Cn1c(=O)c2c(ncn2CCCC(=O)O)n(C)c1=O | 167 to 169
CN(C(=O)CCl)C1(c2ccccc2Cl)CCCCC1=O (stereo not given) | 110 to 112
CCc1ccc(-c2ccc(C(=O)O)o2)cc1 | 170 to 172
Cc1ccc(C(N)Cn2ccnc2)c(C)c1 (stereo not given) | 79 to 81
NC1CCN(C(=O)C2CC2)CC1 | 53 to 55
CC(C)c1cccc(N2CC(C(=O)O)CC2=O)c1 (stereo not given) | 126 to 128
CN1CCCN(c2nc3ccccc3cc2CO)CC1 | 95 to 97
O=C(O)CCn1c(=O)oc2cc(Cl)ccc21 | 160 to 162
CCCc1ccc(N)c(C(=O)O)c1 | 116 to 118
CC(C)C(=O)Nc1ccc(CNC(=O)n2ccnc2)cc1 | 203 to 205
Cc1ccc(-c2n[nH]c(S)nc2=O)cc1 | 225 to 227
CC(N)c1ccc(S(C)(=O)=O)c(F)c1 (stereo not given) | 60 to 62
O=C(O)c1cccc2cccc(-c3cccc4cccc(C(=O)O)c34)c12 | 284 to 286
COc1ccc(S(=O)(=O)Nc2ccccc2C(=O)O)cc1 | 183 to 185
Cc1c(C(=O)O)cnn1-c1ccccc1Cl | 149 to 151
O=C(CC1SC(N2CCCC2)=NC1=O)Nc1ccc(C(=O)O)cc1 (stereo not given) | 180 to 183
Cc1cc(C(=O)O)sc1-c1ccc(F)cc1 | 206 to 208
CC(=O)NC(CC(=O)O)c1ccc(F)cc1F (stereo not given) | 149 to 151
O=C(O)C1CCCN1C1CCNCC1 (stereo not given) | 197 to 199
O=S(=O)(Cl)c1cc(Cl)c(Br)s1 | 61 to 63
Cc1cc(C(=O)O)cc(S(=O)(=O)Cl)c1Cl | 209 to 211
NC1CCN(c2ccccc2Cl)C1=O (stereo not given) | 70 to 72
Nc1nc2nc(-c3ccccc3)cc(C(F)(F)F)c2s1 | 234 to 236
N#Cc1c(NC(=O)CCl)oc(-c2ccccc2)c1-c1ccccc1 | 155 to 157

SMILES | melting point [°C]
Nc1ccc(-c2nc3ccccc3[nH]2)cn1 | 352 to 354
COC(=O)c1ccn2cncc2c1 | 93 to 95
CCOc1nnc(Cl)c2ccccc12 | 80 to 82
CS(=O)(=O)c1cc(C(=O)O)c(Cl)cc1Cl | 210 to 212
Cc1cccc(NC(=O)[C@@H]2CCCN2)n1 | 62 to 64
Cc1cc(C=O)c(C)n1-c1ccc(Cl)cc1 | 123 to 125
CCOCCOc1ccc(Br)cc1/C=C/C(=O)O | 109 to 111
CN(C)c1c(N)n(C)c(=O)[nH]c1=O | 161 to 163
COc1cc2nc(N)sc2cc1OC | 224 to 226
Cc1nc(N)sc1Cc1cccc(F)c1 | 82 to 84
CN(C)S(=O)(=O)c1ccc(F)c(N)c1 | 104 to 106
CCc1ccc(Nc2nnc(SCC(=O)O)s2)cc1 | 250 to 252
CC(=CC(=O)O)c1cccc(Cl)c1 | 156 to 158
O=S(=O)(Cl)c1ccc2c(c1)CCCC2 | 44 to 46
O=C(O)c1cnc2n1CCCC2 | 219 to 221
CC(=O)N(c1ccc(C(F)(F)F)cc1)c1nc(CCl)cs1 | 115 to 117
BrCc1cn(-c2ccccc2)nn1 | 111 to 113
COc1ccc(NC(=O)c2ccccc2N)c(OC)c1 | 154 to 156
O=c1[nH]cnc2cc(-c3ccc(Cl)cc3)sc12 | 327 to 329
Cc1c(N)cnn1CCC(C)C | 46 to 48
COC(=O)c1[nH]c(=O)[nH]c1C | 229 to 231
Clc1cc(C2CC2)nc2ncnn12 | 99 to 101
O=C(O)c1ccccc1SC1CCS(=O)(=O)C1 (stereo not given) | 165 to 167
Cc1ccc(Nc2cccc(C(=O)O)c2)nn1 | 279 to 281

SMILES | melting point [°C]
Cc1cc(N)ccc1NC(=O)c1cccc(S(C)(=O)=O)c1 | 149 to 151
Cc1noc(C)c1COc1ccccc1C(=O)O | 172 to 174
NC(=O)C1(Nc2ccccc2)CCCCC1 | 148 to 150
NNS(=O)(=O)c1ccc(OC(F)(F)F)cc1 | 105 to 107
Cc1cc(Br)c(NC(=O)CCl)c(Br)c1 | 177 to 178
O=C(O)C1Cc2ccccc2CN1S(=O)(=O)c1ccc(F)cc1 (stereo not given) | 99 to 101
CC(=O)NCc1ccc(-c2nc(N)sc2C)s1 | 154 to 156
O=C1CCCN1c1ccc(Cl)c([N+](=O)[O-])c1 | 137 to 139
COc1cc([N+](=O)[O-])cc2sc(N)nc12 | 279 to 281
Nc1ccc(-c2nccn2C(F)F)cc1 | 84 to 86
Cc1ccc(N)cc1N1C(=O)CCC1=O | 199 to 201
CC1(C)CC(=O)CC(C)(C)N1C(=O)CCl | 67 to 69
CS(=O)(=O)OCCn1cc(C#N)cn1 | 64 to 66
O=C(O)c1c[nH]c2ccccc2c1=O | 250 to 252
Nc1cccc(-c2ccc3c(c2)CCO3)n1 | 123 to 125
O=c1[nH]ccc2cc[nH]c12 | 279 to 281
Cc1c(C(=O)O)c(O)nc2ccccc12 | 254 to 256
C=CCN1C(=O)C(=O)N(CC(=O)O)C1=O | 143 to 145
O=C(O)CN1C(=O)C2CC=CCC2C1=O (stereo not given) | 83 to 85
Cc1nsc(Nc2ccccc2)c1C#N | 172 to 174
